# Results as given in article PMC10653547, “Synergistic effect of two antimicrobial peptides, BP203 and MAP-0403 J-2 with conventional antibiotics against colistin-resistant Escherichia coli and Klebsiella pneumoniae clinical isolates” (PLOS ONE, 2023).
# What was measured:
# [1] = system: colistin-resistant E. coli clinical isolates; assay: Checkerboard assay for synergy testing; assay type: cell-based, Escherichia coli; details: checkerboard Ceftazedime+BP203
# Protocol: (§1) The synergistic activities of various two-antimicrobial combinations against colistin-resistant E. coli and K. pneumoniae isolates were evaluated using the checkerboard assay, which was performed in 96-well plates. […] Two-fold serial dilutions of peptides and antibiotics were independently prepared in CAMHB. Afterward, a mixture of different concentrations of the antibiotics and peptides was added to the wells of the microplates. Antibiotics and peptides were also dispended alone in the first row and the first column, respectively. Bacterial inoculum was added to the 96-well plate to achieve a final concentration of 5 × 10^5 CFU/mL. Then, plates were incubated at 37 °C for 20–24 h. MICs were recorded as the minimum concentration of antimicrobial agents without bacterial growth. The interaction between the antimicrobials was determined by calculating the fractional inhibitory concentration index (FICI) according to the formula: FICI = FIC(drug A) + FIC(drug B), where FIC = the MIC of the drug when in the combination/MIC of drug tested individually.
# [2] = system: colistin-resistant K. pneumoniae clinical isolates; assay: Checkerboard assay for synergy testing; assay type: cell-based, Klebsiella pneumoniae; details: checkerboard Ceftazedime+BP203
# Protocol: as §1
smiles,measurement,setting,value
CC(C)(O/N=C(\C(=O)N[C@@H]1C(=O)N2C(C(=O)[O-])=C(C[n+]3ccccc3)CS[C@H]12)c1csc(N)n1)C(=O)O [Ceftazedime],MIC alone,[1]; isolate EC-01,8 µg/mL
same,MIC combination,[1]; isolate EC-01,4 µg/mL
same,MIC alone,[1]; isolate EC-02,16 µg/mL
same,MIC combination,[1]; isolate EC-02,4 µg/mL
same,MIC alone,[1]; isolate EC-03,32 µg/mL
same,MIC combination,[1]; isolate EC-03,8 µg/mL
same,MIC alone,[1]; isolate EC-04,32 µg/mL
same,MIC combination,[1]; isolate EC-04,8 µg/mL
same,MIC alone,[1]; isolate EC-05,1 µg/mL
same,MIC combination,[1]; isolate EC-05,0.25 µg/mL
same,MIC alone,[1]; isolate EC-06,16 µg/mL
same,MIC combination,[1]; isolate EC-06,0.5 µg/mL
same,MIC alone,[1]; isolate EC-07,16 µg/mL
same,MIC combination,[1]; isolate EC-07,8 µg/mL
same,MIC alone,[1]; isolate EC-08,0.5 µg/mL
same,MIC combination,[1]; isolate EC-08,0.25 µg/mL
same,MIC alone,[1]; isolate EC-09,16 µg/mL
same,MIC combination,[1]; isolate EC-09,8 µg/mL
same,MIC alone,[1]; isolate EC-10,8 µg/mL
same,MIC combination,[1]; isolate EC-10,4 µg/mL
same,MIC alone,[2]; isolate KP-01,128 µg/mL
same,MIC combination,[2]; isolate KP-01,8 µg/mL
same,MIC alone,[2]; isolate KP-02,128 µg/mL
same,MIC combination,[2]; isolate KP-02,16 µg/mL
same,MIC alone,[2]; isolate KP-03,512 µg/mL
same,MIC combination,[2]; isolate KP-03,128 µg/mL
same,MIC alone,[2]; isolate KP-04,512 µg/mL
same,MIC combination,[2]; isolate KP-04,512 µg/mL
same,MIC alone,[2]; isolate KP-05,512 µg/mL
same,MIC combination,[2]; isolate KP-05,4 µg/mL
same,MIC alone,[2]; isolate KP-06,256 µg/mL
same,MIC combination,[2]; isolate KP-06,16 µg/mL
same,MIC alone,[2]; isolate KP-07,1020 µg/mL
same,MIC combination,[2]; isolate KP-07,512 µg/mL
same,MIC alone,[2]; isolate KP-08,512 µg/mL
same,MIC combination,[2]; isolate KP-08,64 µg/mL
same,MIC alone,[2]; isolate KP-09,512 µg/mL
same,MIC combination,[2]; isolate KP-09,128 µg/mL
same,MIC alone,[2]; isolate KP-10,512 µg/mL
same,MIC combination,[2]; isolate KP-10,32 µg/mL
